Measurements: patent publication US12370161B2, “Composition for treating atopy or pruritus comprising N-acetyl or N-acyl amino acid” (STEMDR INC., priority 2017, dated 2025)
“Also recorded” adds a separate entry of the source.

What was measured:
IL4 [1] = test: IL4 mRNA in skin tissue by quantitative real-time PCR, Balb/c; type: in vivo, mouse; conditions: atopy-induced Balb/c mice, normalized to β-actin
Experimental: (§1) After isolating total RNA from the atopy-induced skin tissue using 500 μL of Trizol (Life Technologies, USA) according to the manufacturer's protocol and synthesizing cDNA using the Superscript III reverse transcriptase (Life Technologies, USA), real-time PCR was conducted by reacting with the primers of IL4 and interferon γ to be analyzed. The real-time PCR was conducted on a StepOne Plus PCR cycler (Applied Biosystems) using SYBR Green (Applied Biosystems, Foster City, CA). The mRNA expression data were analyzed by the ΔΔCT method and were normalized to β-actin for gene detection. The primers necessary for the real-time PCR were purchased from Qiagen (USA). […] IL4 is known to induce TH2 response and interferon γ is known to induce TH1 response.

[2] = tested on: atopic dermatitis-induced Nc/Nga mouse; test: SCORAD clinical skin score, DNFB-induced atopic dermatitis in Nc/Nga mouse; type: in vivo; conditions: for atopic dermatitis-treating effect (SCORAD, FIG. 3A) / dermatitis-treating effect of L-, L/D- and D-form (FIG. 6): Nc/Nga atopic dermatitis model; for atopic dermatitis-treating effect (SCORAD, FIG. 3A): 0.1% topical; for dermatitis-treating effect of L-, L/D- and D-form (FIG. 6): 0.1%; for effect in Nc/Nga model (back skin images, FIG. 3B): treated for 7 days, day 22
Experimental: In order to establish a model more similar to an atopy model than that of the Balb/c mice, atopy was induced in Nc/Nga mouse mice. Specifically, after inducing DNFB sensitization by applying 100 μL of 0.35% 2,4-dinitrofluorobenzene (DNFB) in acetone/olive oil (3:1) on the shaved back skin, dermatitis was induced by applying 100 μL of 0.15% DNFB for 4-20 days, every other day. Control mice were treated with a vehicle of the same volume (FIG. 1B).
After dissolving an N-acetyl or N-acylamino acid in phosphate-buffered saline to 0.1%, 200 μL of the solution was applied on the back skin of the mice every day, from day 22 until day 28 for the Balb/c atopic dermatitis model, and from day 15 until day 21 for the Nc/Nga atopic dermatitis model. When the N-acetyl or N-acylamino acid was treated together with DNFB, they were treated with 12-hour intervals in order to avoid direct reaction between the DNFB and the N-acetyl or N-acylamino acid. A non-treated group and a 2,4-dinitrofluorobenzene (DNFB) group were treated with phosphate-buffered saline of the same volume (FIGS. 1A-1B). As the N-acetylamino acid, products purchased from Sigma-Aldrich (USA), MP scientific (USA), TCI (Tokyo Chemical Industry, Japan), Santacruz (USA), etc. were used without purification.
The degree of skin soothing and the severity of atopic dermatitis were evaluated macroscopically according to the previously established SCORAD (SCORing Atopic Dermatitis) method (Oranje et al., 2007). The degree of symptoms such as edema, erythema, eschar, dryness, abrasion, lichenification, etc. was graded from 0 to 3 (0, no symptom; 1, mild; 2, moderate; 3, severe). The overall dermatitis score was determined from the sum of all individual scores (Table 1). The assessment was performed by an investigator who was blind to the grouping of the mice.
Skin-soothing effect and the severity of dermatitis were evaluated for the acyl derivatives of tryptophan synthesized in Example 9, the acyl derivative of alanine synthesized in Example 10 and N-palmitoylalanine (purchased from Santacruz (USA)) according to the method of Example 4 (Table 2)

IL4 [3] = test: IL4 mRNA in skin tissue by quantitative real-time PCR, Nc/Nga; type: in vivo, mouse; conditions: atopy-induced Nc/Nga mice, normalized to β-actin
Experimental: as §1

IgE [4] = test: Serum IgE level by ELISA, Balb/c; type: in vivo, mouse; conditions: atopy-induced Balb/c mice
Experimental: (§2) After treatment with the test substance, the mice were sacrificed and blood was taken from the heart. After isolating serum from the blood, IgE level was measured. Specifically, after attaching antibodies diluted in a buffer solution onto a 96-well plate and incubating overnight at 4° C., experiment was conducted using an IgE ELISA kit (BD Biosciences, San Diego, CA) according to the provided manual. The quantity of the IgE protein was determined by measuring absorbance at 450 nm using a microplate reader.

IgE [5] = test: Serum IgE level by ELISA, Nc/Nga; type: in vivo, mouse; conditions: atopy-induced Nc/Nga mice
Experimental: as §2

interferon γ [6] = test: Interferon γ mRNA in skin tissue by quantitative real-time PCR, Balb/c; type: in vivo, mouse; conditions: atopy-induced Balb/c mice, normalized to β-actin
Experimental: as §1

[7] = tested on: pruritus caused by atopic contact dermatitis; test: Pruritus inhibition test, pruritus induced with DNFB; type: in vivo, mouse; conditions: 0.1% in physiological saline applied once onto right ear, pruritus measured for 1 hour
Experimental: In order to investigate whether L-form, LID-form and D-form N-acetylalanine, N-acetylarginine, N-acetylthreonine and N-acetyltryptophan inhibit pruritus caused by atopic contact dermatitis, 20 μL of 0.1% 2,4-dinitrofluorobenzene (DNFB) solution and 0.1% N-acetylamino acid dissolved in physiological saline were applied once onto the right ear 10 minutes after the final treatment (day 27) with 2,4-dinitrofluorobenzene (DNFB) (Physiological saline was applied to a negative control group), and then pruritus was measured for 1 hour. FIG. 7 compares the pruritus-relieving effect of L-form N-acetylalanine, N-acetylthreonine, N-acetylarginine and N-acetyltryptophan with D/L-form and D-form N-acetylalanine and N-acetyltryptophan at 0.1% after the induction of pruritus with DNFB.

interferon γ [8] = test: Interferon γ mRNA in skin tissue by quantitative real-time PCR, Nc/Nga; type: in vivo, mouse; conditions: atopy-induced Nc/Nga mice, normalized to β-actin
Experimental: as §1

[9] = tested on: atopic dermatitis-induced Nc/Nga mouse; test: Hematoxylin/eosin staining of back skin tissue, epidermal and dermal thickness; type: in vivo; conditions: 5 μm slices
From the text: After extracting back skin tissues of the atopic dermatitis-induced and drug-treated Nc/Nga mice of Example 2, the tissues were fixed with an Accustain formalin-free fixative solution and then prepared into paraffin blocks. The paraffin blocks were sliced to a thickness of 5 μm and the change in the thickness of the epidermal and dermal layers was observed by staining with hematoxylin/eosin.

[10] = tested on: atopic dermatitis-induced Balb/c mouse; test: SCORAD clinical skin score, DNFB-induced atopic dermatitis in Balb/c mouse; type: in vivo; parameters: key to Mouse 1 Sum / Mean (of Sum, SCORAD) / Mouse 2 Sum / Mouse 3 Sum: sum of symptom grades, each 0 (none) to 3 (severe); conditions: for skin-soothing and atopic dermatitis-treating effect (SCORAD, Table 1, FIG. 2A): Balb/c atopic dermatitis model, 0.1% topical, P<0.05 versus DNFB group; for apparent degree of dermatitis (back skin images, FIG. 2B): Balb/c, treated for 7 days, day 29; for Mouse 1 Erythema / Mouse 1 Abrasion / Mouse 1 Dryness / Mouse 1 Edema / Mouse 1 Eschar / Mouse 1 Lichenification / Mouse 1 Sum / Mouse 2 Abrasion / Mouse 2 Dryness / Mouse 2 Edema / Mouse 2 Erythema / Mouse 2 Eschar / Mouse 2 Lichenification / Mouse 2 Sum / Mouse 3 Abrasion / Mouse 3 Dryness / Mouse 3 Edema / Mouse 3 Erythema / Mouse 3 Eschar / Mouse 3 Lichenification / Mouse 3 Sum / Mean (of Sum, SCORAD): DNFB Balb/c; for Mouse 1 Erythema: 0.1% in PBS, 200 μL on back skin daily day 22-28, grade 0-3 (0 no symptom, 1 mild, 2 moderate, 3 severe); for Mouse 1 Abrasion / Mouse 1 Dryness / Mouse 1 Edema / Mouse 1 Eschar / Mouse 1 Lichenification / Mouse 1 Sum / Mouse 2 Abrasion / Mouse 2 Dryness / Mouse 2 Edema / Mouse 2 Erythema / Mouse 2 Eschar / Mouse 2 Lichenification / Mouse 2 Sum / Mouse 3 Abrasion / Mouse 3 Dryness / Mouse 3 Edema / Mouse 3 Erythema / Mouse 3 Eschar / Mouse 3 Lichenification / Mouse 3 Sum / Mean (of Sum, SCORAD): 0.1% topical day 22-28; for Mouse 1 Abrasion / Mouse 1 Dryness / Mouse 1 Edema / Mouse 1 Eschar / Mouse 1 Lichenification / Mouse 2 Abrasion / Mouse 2 Dryness / Mouse 2 Edema / Mouse 2 Erythema / Mouse 2 Eschar / Mouse 2 Lichenification / Mouse 3 Abrasion / Mouse 3 Dryness / Mouse 3 Edema / Mouse 3 Erythema / Mouse 3 Eschar / Mouse 3 Lichenification: grade 0-3; for Mouse 1 Sum / Mouse 2 Sum / Mouse 3 Sum: overall dermatitis score, sum of individual scores; for Mean (of Sum, SCORAD): mean of 3 mice
In short: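 Mice sensitized with 0.35% DNFB on shaved back, then challenged with 0.25% DNFB on days 6–27; 0.1% N-acetyl/N-acylamino acid in PBS applied topically daily days 22–28, 12 h apart from DNFB. Blinded SCORAD: six symptoms each graded 0–3, summed.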

[11] = listed as L-form N-acetyltryptophan
[12] = listed as L-form N-acetylalanine

Structure (SMILES)	level of IL4 in the skin tissue (FIG. 5A) (IL4 [1])	atopic dermatitis-treating effect (SCORAD, FIG. 3A) [2]	effect in Nc/Nga model (back skin images, FIG. 3B) [2]	level of IL4 in the skin tissue (FIG. 5B) (IL4 [3])	serum IgE level (FIG. 4A) (IgE [4])	serum IgE level (FIG. 4B) (IgE [5])	level of interferon γ in the skin tissue (FIG. 5A) (interferon γ [6])	level of interferon γ in the skin tissue (FIG. 5B) (interferon γ [8])	thickness of the epidermal and dermal layers (FIG. 3C) [9]	skin-soothing and atopic dermatitis-treating effect (SCORAD, Table 1, FIG. 2A) [10]	apparent degree of dermatitis (back skin images, FIG. 2B) [10]	Mouse 1 Erythema [10]	Mouse 1 Abrasion [10]	Mouse 1 Dryness [10]	Mouse 1 Edema [10]	Mouse 1 Eschar [10]	Mouse 1 Lichenification [10]	Mouse 1 Sum [10]	Mouse 2 Abrasion [10]	Mouse 2 Dryness [10]	also measured
CC(=O)N[C@@H](Cc1c[nH]c2ccccc12)C(=O)O [N-acetyl-L-tryptophan]	significantly decreased	showed atopic dermatitis-treating effect	remarkable effect	significantly decreased	significant decrease	significant decrease	significantly decreased	significantly decreased	significantly decreased	significant skin-soothing and atopic dermatitis-treating effects; also recorded: significant atopic dermatitis-treating effect	decreased remarkably	1	1	0	1	1	1	5	0	1	dermatitis-treating effect of L-, L/D- and D-form (FIG. 6) [2, 11]: remarkable effect; pruritus-relieving effect (FIG. 7) [7, 11]: significantly inhibited pruritus; Mouse 2 Edema [10]: 1; Mouse 2 Erythema [10]: 0; Mouse 2 Eschar [10]: 1; Mouse 2 Lichenification [10]: 0; Mouse 2 Sum [10]: 3; Mouse 3 Abrasion [10]: 2; Mouse 3 Dryness [10]: 0; Mouse 3 Edema [10]: 0; Mouse 3 Erythema [10]: 0; Mouse 3 Eschar [10]: 2; Mouse 3 Lichenification [10]: 0; Mouse 3 Sum [10]: 4; Mean (of Sum, SCORAD) [10]: 4
CC(=O)N[C@@H](C)C(=O)O [N-acetyl-L-alanine]	significantly decreased	showed atopic dermatitis-treating effect	remarkable effect	significantly decreased	significant decrease	significant decrease	significantly decreased	significantly decreased	significantly decreased	significant skin-soothing and atopic dermatitis-treating effects; also recorded: significant atopic dermatitis-treating effect	decreased remarkably	1	1	2	1	1	0	6	1	0	dermatitis-treating effect of L-, L/D- and D-form (FIG. 6) [2, 12]: remarkable effect; pruritus-relieving effect (FIG. 7) [7, 12]: significantly inhibited pruritus; Mouse 2 Edema [10]: 1; Mouse 2 Erythema [10]: 1; Mouse 2 Eschar [10]: 1; Mouse 2 Lichenification [10]: 0; Mouse 2 Sum [10]: 4; Mouse 3 Abrasion [10]: 1; Mouse 3 Dryness [10]: 0; Mouse 3 Edema [10]: 1; Mouse 3 Erythema [10]: 1; Mouse 3 Eschar [10]: 1; Mouse 3 Lichenification [10]: 1; Mouse 3 Sum [10]: 5; Mean (of Sum, SCORAD) [10]: 5
